Test results taken from PubChem BioAssay AID1845217 (Molecular Pharmacology Branch, DTP, NCI, 2023).

Test system: VA-ES-BJ tumor spheroid viability
Experiment: Anticancer human tumor VA-ES-BJ cell line growth inhibition;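 further: spheroids exposed to compounds for seven days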;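 on viability, T/C: percent of DMSO vehicle control viability so 100% = untreated growth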
Conditions: spheroids with HUVEC and MSC; for IC50: curve of first compound; for viability, T/C: stronger effect = lower value
Description: Multicellular complex tumor spheroid response to DNA repair inhibitors in combination with DNA-damaging drugs
This study explores the anticancer activities of DNA-damaging drugs and inhibitors of DNA damage repair, both as single agents and in combinations. Complex tumor spheroids comprised of malignant cells, endothelial cells and mesenchymal stem cells served as an in vitro model for human solid tumors. This model system incorporates physiologically relevant features and patient-derived or established malignant cell lines with clinically relevant genetic alterations from many tumor types. Twenty-six patient-derived or established malignant cell lines were evaluated representing sarcoma, melanoma, small cell lung cancer (SCLC), non-small cell lung cancer (NSCLC), as well as bladder, ovarian and pancreatic cancers. The concentration ranges selected for each drug and investigational agent were based upon clinically achievable concentrations if the clinical Cmax of the agent was known.
Compounds. The drugs and compounds olaparib (NSC753686), talazoparib (NSC767125), berzosertib (NSC777718), elimusertib (NSC800525), nedisertib (NSC802822), VX-984 (NSC792969), AZD-1390 (NSC803789), temozolomide (NSC362856), topotecan (NSC609699), trabectedin (NSC813783), staurosporine (NSC755774), and gemcitabine (NSC613327) were obtained from the National Cancer Institute (NCI) Developmental Therapeutics Program Chemical Repository. The FDA-approved anticancer drug set is available from the Developmental Therapeutics Program at https://dtp.cancer.gov/organization/dscb/obtaining/available_plates.htm. […] The stock solutions were prepared in dimethyl sulfoxide (DMSO, Sigma-Aldrich, St. Louis, MO, cat. D2650) at 400-fold the tested concentration and stored at -70 degrees C. Prior to their use, the stock solutions were diluted in fresh medium and the final DMSO concentration in the assay was 0.25% (v/v). All drugs and investigational agents were tested over a range starting from a high concentration at or near the clinical Cmax and decreasing in half-log increments. If the clinical Cmax for an agent had not been determined, the highest concentration tested was 10 microM.
Cell Lines. The patient-derived cancer cell (PDC) lines: 156681-154-R-J1-PDC, 283228-195-R-J1-PDC, 287954-098-R-J1-PDC, 292921-168-R-J2-PDC, 349418-098-R-PDC, 425362-245-T-J1-PDC, 556581-035-R-J1-PDC, and BL0293-F563-PDC were received from the NCI Patient-Derived Models Repository (PDMR, https://pdmr.cancer.gov). The established cell lines HS-SY-2 (RRID:CVCL_8719), MPNST, and SYO-1 (RRID:CVCL_7146) were obtained from the Sloan Kettering Institute. The alveolar soft parts sarcoma cell line ASPS-1 (RRID:CVCL_S738) was established at the NCI and grown from internal seed stocks. The following established cell lines were purchased from the American Type Culture Collection (ATCC, Manassas, VA): G-401 (ATCC, cat. CRL-1441, RRID:CVCL_0270), SW982 (ATCC, cat. HTB-93, RRID:CVCL_1734), VA-ES-BJ (ATCC, cat. CRL-2138, RRID:CVCL_1785), NCI-H719 (ATCC, cat. CRL-5837, RRID:CVCL_1582), NCI-H196 (ATCC, cat. CRL-5823, RRID:CVCL_1509), NCI-H841 (ATCC, cat. CRL-5845, RRID:CVCL_1595), NCI-H1618 (ATCC, cat. CRL-5879, RRID:CVCL_1480), NCI-H1876 (ATCC, cat. CRL-5902, RRID:CVCL_1503), DMS 114 (ATCC, cat. CRL-2066; RRID:CVCL_1174), NCI-H211 (ATCC, cat. CRL-5824; RRID:CVCL_1529), and SW 1271 (ATCC, cat. CRL-2177, RRID:CVCL_1716). The small cell lung cancer cell line COR-L88 was purchased from Sigma-Aldrich (cat. 92031917-1VL, RRID:CVCL_1141). The non-small cell lung cancer cell lines NCI-H226 (RRID:CVCL_1544) and NCI-H322M (RRID:CVCL_1557) were established at the NCI and grown from internal seed stocks. Pooled donor human umbilical vein endothelial cells (HUVEC, Lonza, cat. CC-2519) and human mesenchymal stem cells (hMSC, Lonza, cat. PT-2501) were purchased from Lonza (Walkersville, MD).
Cell Culture. All cells were maintained in an incubator at 37 degrees C and 5% CO2 with 95% humidity. […]

[1] = second compound 0.003 µM, first compound 0.0316 µM
[2] = second compound 0.003 µM, first compound 0.1 µM
[3] = second compound 0.003 µM, first compound 0.316 µM
[4] = second compound 0.003 µM, first compound 1 µM
[5] = second compound 0.003 µM, first compound 3.16 µM
[6] = second compound 0.003 µM, first compound 10 µM

For Cc1cc(C)c(CNC(=O)c2cc(-c3ccc(CN4CCOCC4)cc3)cc3c2cnn3C2CCCC2)c(=O)[nH]1 + CC[C@@]1(O)C(=O)OCc2c1cc1n(c2=O)Cc2cc3c(CN(C)C)c(O)ccc3nc2-1, the IC50 (second compound 0.003 µM) was greater than 10000 nM, the IC50 (second compound 0.00949 µM) was greater than 10000 nM and the IC50 (second compound 0.03 µM) was less than 31.6 nM. It also gave an IC50 (second compound 0.0949 µM) of less than 31.6 nM, an IC50 (second compound 0.3 µM) of less than 31.6 nM and a viability, T/C [1] of 92.3%. For the same compound, the viability, T/C [2] was 98%, the viability, T/C [3] was 95% and the viability, T/C [4] was 98.9%. The viability, T/C [5] was 103%, the viability, T/C [6] was 94.8% and the viability, T/C (second compound 0.00949 µM, first compound 0.0316 µM) was 74.2%. For the same compound, the viability, T/C (second compound 0.00949 µM, first compound 0.1 µM) was 84%, the viability, T/C (second compound 0.00949 µM, first compound 0.316 µM) was 93.5% and the viability, T/C (second compound 0.00949 µM, first compound 1 µM) was 90%. The viability, T/C (second compound 0.00949 µM, first compound 3.16 µM) was 86.5%, the viability, T/C (second compound 0.00949 µM, first compound 10 µM) was 62.1% and the viability, T/C (second compound 0.03 µM, first compound 0.0316 µM) was 37.3%. It also gave a viability, T/C (second compound 0.03 µM, first compound 0.1 µM) of 39%, a viability, T/C (second compound 0.03 µM, first compound 0.316 µM) of 37.3% and a viability, T/C (second compound 0.03 µM, first compound 1 µM) of 36.1%. It also gave a viability, T/C (second compound 0.03 µM, first compound 3.16 µM) of 38.2%, a viability, T/C (second compound 0.03 µM, first compound 10 µM) of 44% and a viability, T/C (second compound 0.0949 µM, first compound 0.0316 µM) of 5.21%. For the same compound, the viability, T/C (second compound 0.0949 µM, first compound 0.1 µM) was 5.14%, the viability, T/C (second compound 0.0949 µM, first compound 0.316 µM) was 5.02% and the viability, T/C (second compound 0.0949 µM, first compound 1 µM) was 5.85%. It also gave a viability, T/C (second compound 0.0949 µM, first compound 3.16 µM) of 5.97%, a viability, T/C (second compound 0.0949 µM, first compound 10 µM) of 6.03% and a viability, T/C (second compound 0.3 µM, first compound 0.0316 µM) of 5.75%. For the same compound, the viability, T/C (second compound 0.3 µM, first compound 0.1 µM) was 5.52%, the viability, T/C (second compound 0.3 µM, first compound 0.316 µM) was 4.6% and the viability, T/C (second compound 0.3 µM, first compound 1 µM) was 5.28%. For the same compound, the viability, T/C (second compound 0.3 µM, first compound 3.16 µM) was 5.46% and the viability, T/C (second compound 0.3 µM, first compound 10 µM) was 5.71%.

In the case of CC(C)n1c(=O)n(C)c2cnc3cc(F)c(-c4ccc(OCCCN5CCCCC5)nc4)cc3c21 + COc1cc2c(cc1O)CCNC21CSC2c3c(OC(C)=O)c(C)c4c(c3C(COC1=O)N1C(O)C3Cc5cc(C)c(OC)c(O)c5C(C21)N3C)OCO4, the IC50 (second compound 30 pM) is reported as 5850 nM, the IC50 (second compound 94.9 pM) is reported as less than 31.6 nM and the IC50 (second compound 0.0003 µM) is reported as less than 31.6 nM. The IC50 (second compound 0.000949 µM) was less than 31.6 nM, the IC50 (second compound 0.003 µM) was less than 31.6 nM and the viability, T/C (second compound 30 pM, first compound 0.0316 µM) was 76.2%. For the same compound, the viability, T/C (second compound 30 pM, first compound 0.1 µM) was 76.6%, the viability, T/C (second compound 30 pM, first compound 0.316 µM) was 75.2% and the viability, T/C (second compound 30 pM, first compound 1 µM) was 81%. For the same compound, the viability, T/C (second compound 30 pM, first compound 3.16 µM) was 79.1%, the viability, T/C (second compound 30 pM, first compound 10 µM) was 26% and the viability, T/C (second compound 94.9 pM, first compound 0.0316 µM) was 50.3%. It also gave a viability, T/C (second compound 94.9 pM, first compound 0.1 µM) of 45.4%, a viability, T/C (second compound 94.9 pM, first compound 0.316 µM) of 46.6% and a viability, T/C (second compound 94.9 pM, first compound 1 µM) of 54.1%. The viability, T/C (second compound 94.9 pM, first compound 3.16 µM) was 47.8%, the viability, T/C (second compound 94.9 pM, first compound 10 µM) was 28.6% and the viability, T/C (second compound 0.0003 µM, first compound 0.0316 µM) was 25.9%. It also gave a viability, T/C (second compound 0.0003 µM, first compound 0.1 µM) of 25.1%, a viability, T/C (second compound 0.0003 µM, first compound 0.316 µM) of 30.5% and a viability, T/C (second compound 0.0003 µM, first compound 1 µM) of 31.5%. The viability, T/C (second compound 0.0003 µM, first compound 3.16 µM) was 19.7%, the viability, T/C (second compound 0.0003 µM, first compound 10 µM) was 13.2% and the viability, T/C (second compound 0.000949 µM, first compound 0.0316 µM) was 1.74%. It also gave a viability, T/C (second compound 0.000949 µM, first compound 0.1 µM) of 1.58%, a viability, T/C (second compound 0.000949 µM, first compound 0.316 µM) of 1.8% and a viability, T/C (second compound 0.000949 µM, first compound 1 µM) of 1.79%. It also gave a viability, T/C (second compound 0.000949 µM, first compound 3.16 µM) of 1.02%, a viability, T/C (second compound 0.000949 µM, first compound 10 µM) of 1.02% and a viability, T/C [1] of 1.5%. For the same compound, the viability, T/C [2] was 1.42%, the viability, T/C [3] was 1.59% and the viability, T/C [4] was 0.72%. It also gave a viability, T/C [5] of 0.45% and a viability, T/C [6] of 0.56%.
